Results on ten molecules are retold here after patent US11858905B1, “Cathepsin L inhibitors” (priority 2023, dated 2024).

Where two headings read alike, the source gives them in different places.

Test [1] addresses human CatL (Homo sapiens (Human), UniProt P07711). Briefly: Human Cathepsin L (CatL) enzymatic assay. It is filed as biochemical. As for the experimental part:
Human Cathepsin L (CatL) Enzymatic Assay
60 μL of the compounds were added to 384-well dilution plate. The compound solution was diluted for 1:3 in succession in DMSO for each column for 10 pts. 0.05 μL diluted compound solution was added in each row to 384 assay plates (Corning 4514) using Echo (LABCYTE 655), each column containing 2 replicates. 5 μL working solution of human CatL enzyme (Abcam #ab81780) was added to 384-well assay plate, centrifuge 1000 rpm for 1 min. The mixture was incubated at […] for 15 min, then add 5 μL working solution of CatL substrate (Genscript #C7360HB140_5) to initiate the reaction (CatL: 0.05 nM, Substrate: 500 nM). Incubate at […] for 30 min. Reading Ex370 nm and Em460 nm fluorescence signals with BMG CLARIO Star Plusaucu. Percent inhibition for each compound was calculated and IC50 (half maximal inhibitory concentration) was fitted from non-linear regression by XLfit 5.5.0.

The subject of test [2] is SARS-CoV-2 PsVs. Put plainly: microbe, parasite or virus in culture. In kind it is cell-based. The note with it: Severe acute respiratory syndrome coronavirus 2, Vero C1008, 24 h; for activity at 0.5 µM: read-out: % Infection rate at 500 nM; for activity at 5 µM: read-out: % Infection rate at 5 uM.
Where [3] appears, read: CatL 0.05 nM, substrate 500 nM, pH 5.5, read-out: Enzymatic inhibition IC50.
[4] abbreviates: summary of Table 2, read-out: IC50 for inhibiting CatL.

human CatL, sequence (P07711 whole entry, looked up): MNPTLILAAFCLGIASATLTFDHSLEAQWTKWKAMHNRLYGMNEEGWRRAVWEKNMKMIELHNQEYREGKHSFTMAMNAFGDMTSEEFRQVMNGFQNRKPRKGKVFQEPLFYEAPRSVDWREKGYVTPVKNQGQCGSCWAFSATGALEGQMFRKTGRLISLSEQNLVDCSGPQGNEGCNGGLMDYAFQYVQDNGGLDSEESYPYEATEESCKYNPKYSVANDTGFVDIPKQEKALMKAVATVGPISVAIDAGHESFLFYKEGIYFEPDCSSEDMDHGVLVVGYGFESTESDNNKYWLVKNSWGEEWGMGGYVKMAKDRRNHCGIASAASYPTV

The IC50 is the point on the concentration scale where inhibition reaches its midpoint. Turning to `N#CC1(NC(=O)[C@H](Cc2nc3ccccc3o2)NC(=O)c2cccc(Cl)c2)CC1` [Compound 1, (S)—N-(3-(benzo[d]oxazol-2-yl)-1-((1-cyanocyclopropyl)amino)-1-oxopropan-2-yl)-3-chlorobenzamide], in test [1] (setting [3]), the IC50 was found to be 14.1 nM. Further, in test [2], the activity at 0.5 µM was 69% and the activity at 5 µM turned out to be 39%.

For `N#CC1(NC(=O)[C@H](Cc2nc3c(Br)cccc3o2)NC(=O)c2cccc(Cl)c2)CC1` [Compound 2, (S)—N-(3-(4-bromobenzo[d]oxazol-2-yl)-1-((1-cyanocyclopropyl)amino)-1-oxopropan-2-yl)-3-chlorobenzamide], the IC50 in test [1] (setting [3]) stood at 7.5 nM. Also, in test [1] (setting [4]), the IC50 is less than 10 nM. Further, in test [2], the activity at 0.5 µM worked out at 55% and the activity at 5 µM is 12%.

As for `N#CC1(NC(=O)[C@H](Cc2nc3cccc(Br)c3o2)NC(=O)c2cccc(Cl)c2)CC1` [Compound 3, (S)—N-(3-(7-bromobenzo[d]oxazol-2-yl)-1-((1-cyanocyclopropyl)amino)-1-oxopropan-2-yl)-3-chlorobenzamide], the IC50 in test [1] (setting [3]) amounted to 5.9 nM. Besides, the IC50 in test [1] (setting [4]) is less than 10 nM. Also, in test [2], the activity at 0.5 µM was 65% and the activity at 5 µM was determined as 10%.

Take `N#CC1(NC(=O)[C@H](Cc2nc3ccc(F)cc3o2)NC(=O)c2cccc(Cl)c2)CC1` [Compound 4, (S)-3-chloro-N-(1-((1-cyanocyclopropyl)amino)-3-(6-fluorobenzo[d]oxazol-2-yl)-1-oxopropan-2-yl)benzamide]: the IC50 in test [1] (setting [3]) was found to be 34.9 nM. Besides, in test [2], the activity at 0.5 µM came to 81% and the activity at 5 µM is 51%.

For the molecule `N#Cc1cccc2nc(C[C@H](NC(=O)c3cccc(Cl)c3)C(=O)NC3(C#N)CC3)oc12` [Compound 5, (S)-3-chloro-N-(3-(7-cyanobenzo[d]oxazol-2-yl)-1-((1-cyanocyclopropyl)amino)-1-oxopropan-2-yl)benzamide], the IC50 in test [1] (setting [3]) came out at 122 nM. Also, in test [2], the activity at 0.5 µM was 91% and the activity at 5 µM came to 81%.

`N#CC1(NC(=O)[C@H](Cc2nc3cccc(Cl)c3o2)NC(=O)c2cccc(Cl)c2)CC1` [Compound 6, (S)-3-chloro-N-(3-(7-chlorobenzo[d]oxazol-2-yl)-1-((1-cyanocyclopropyl)amino)-1-oxopropan-2-yl)benzamide]: the IC50 in test [1] (setting [3]) was 7 nM. For the same molecule, the IC50 in test [1] (setting [4]) was less than 10 nM. In test [2], the activity at 0.5 µM turned out to be 75% and the activity at 5 µM was 20%.

As to `N#CC1(NC(=O)[C@H](Cc2nc3c(Cl)cccc3o2)NC(=O)c2cccc(Cl)c2)CC1` [Compound 7, (S)-3-chloro-N-(3-(4-chlorobenzo[d]oxazol-2-yl)-1-((1-cyanocyclopropyl)amino)-1-oxopropan-2-yl)benzamide], the IC50 in test [1] (setting [3]) turned out to be 21.1 nM. In addition, in test [2], the activity at 0.5 µM is 96% and the activity at 5 µM worked out at 48%.

For the molecule `N#CC1(NC(=O)[C@H](Cc2nc3cccc(C(F)(F)F)c3o2)NC(=O)c2cccc(Cl)c2)CC1` [Compound 12, (S)-3-chloro-N-(1-((1-cyanocyclopropyl)amino)-1-oxo-3-(7-(trifluoromethyl)benzo[d]oxazol-2-yl)propan-2-yl)benzamide], in test [1] (setting [3]), the IC50 was 235 nM.

In the case of `Cc1nn(C2CC2)cc1C(=O)N[C@@H](Cc1nc2ccccc2o1)C(=O)NC1(C#N)CC1` [Compound 16, (S)—N-(3-(benzo[d]oxazol-2-yl)-1-((1-cyanocyclopropyl)amino)-1-oxopropan-2-yl)-1-cyclopropyl-3-methyl-1H-pyrazole-4-carboxamide], the IC50 in test [1] (setting [3]) came to 139 nM.

For the molecule `Cc1nn(C2CC2)cc1C(=O)N[C@@H](Cc1nc2cc(F)c(F)cc2o1)C(=O)NC1(C#N)CC1` [Compound 17, (S)—N-(1-((1-cyanocyclopropyl)amino)-3-(5,6-difluorobenzo[d]oxazol-2-yl)-1-oxopropan-2-yl)-1-cyclopropyl-3-methyl-1H-pyrazole-4-carboxamide], the IC50 in test [1] (setting [3]) stood at 201 nM.
